For assay [1], the system named is MC26 CRC lung tumors. Conditions: mouse, in vivo.
Assay [2] relates to LS 174T tumors. Description: PET-CT imaging of low glucose uptake subcutaneous xenografts. On the set-up: species or system NCr nude mice. The settings on record: mouse, in vivo.
Assay [3] deals with MC26 CRC lung tumors. Description: 5-FU treatment of CRC lung disease model, monitored with PRISM (urine, PET-CT). It counts as in vivo, BALB/c mice. The settings on record: 5-FU 15 mg/kg i.p.
Procedure: 5-Fluorouracil (5-FU) was purchased (Sigma-Aldrich) and prepared as previously described.[47] 5-FU or vehicle control (DMSO) was administered by intraperitoneal injection at in a 0.2 mL volume starting 1 week after cell injection for metastasis-initiation experiments. A 15 mg/kg dose per treatment was used for all experiments. […] Experimental group sizes were practically associated according to the number of mice housed per cage (n=5 mice per cage). […] Tumor-bearing mice were closely monitored and euthanized following health-check advice given by an independent veterinary scientist responsible for animal welfare. […] Reconstructed PET and CT data were quantitatively evaluated using VivoQuant software (inviCRO Inc.). […] The radioactivity uptake values within CT-drawn organs were obtained from mean voxel values within the ROI and converted to percentage injected dose (ID) and then divided by mouse weight (g) to obtain an imaging ROI-derived percentage of the injected radioactive dose per gram of tissue (%ID/g). […] The tumor (or tissue) to tissue (i.e. lung to liver) ratio was calculated by dividing the mean lung by the mean liver %ID/g values. To quantify the radioactivity in diseased tissues ex vivo, tissues were harvested after perfusion with PBS and counts were collected using a 2480 WIZARD2 gamma counter (Perkin Elmer Inc.). […]

On to `OC[C@H]1OC(O)[C@H](F)[C@@H](O)[C@@H]1O` (stereo partly shown) [18F-FDG, 18F-2-deoxyfluoroglucose], for which, in assay [1], the “background signal in the chest / heart accumulation on PET-CT” value is “strong accumulation in the heart”. Moreover, in assay [2], the “tumor uptake versus background tissue” value is “indistinguishable from the background tissue”.
As to `O=c1[nH]cc(F)c(=O)[nH]1` [5-FU, 5-Fluorouracil], the “relative lung/liver ratio of PET-CT signal, no-treatment cohort versus cohort treated with chemotherapy” value in assay [3] (two weeks of treatment, 64Cu-PRISM PET-CT) is given as “over 3 times”. Further, in assay [3] (urinary reporter signal and PET imaging, after a single week), the “effect on tumor progression compared with non-treated cohort” value was “significantly inhibited tumor progression”.

These data come from publication PMC12341765, “Microenvironment-triggered multimodal precision diagnostics” (Nature materials, 2021).
